In patent US20250042853A1, “BICYCLIC COMPOUND AND APPLICATION THEREOF” (BETTA PHARMACEUTICALS CO., LTD, priority 2021, published 2025) one finds IC50 data, which are given here for 30 compounds.

The experiment deals with VEGFA. The experiment can be described thus: VEGFA ELISA assay (IC50). In kind it is cell-based. Conditions: 786-O cells, 24 h, VEGFA in culture supernatant by ELISA. On the procedure:
786-O cells in the logarithmic growth phase were inoculated into a 96-well plate at a cell concentration of 65,000 cells per ml of culture liquid, 180 μL per well. The compounds were diluted to the corresponding concentrations, and 20 μL of compound solutions of various concentrations were added to the corresponding cell wells, so that the final concentrations of the compounds were 1.5 nM, 4.6 nM, 13.7 nM, 41.2 nM, 123.5 nM, 370.4 nM, 1111.1 nM, 3333.3 nM, and 10000 nM, respectively. After culturing for 24 h, the cell culture supernatant was collected and the VEGFA concentration was determined using an ELISA kit (purchased from Abeam). Finally, the reaction was terminated and the absorbance value of each well was measured at a wavelength of 450 nm using an ELISA reader. The IC50 values were calculated by GraphPadPrism. CellTiter-Glo reagent was used to measure cell viability.
Background: ELISA stands for enzyme-linked immunosorbent assay.

[1] abbreviates: Homo sapiens, 786-0, class symbols.

Regarding `CS(=O)(=O)c1cn(-c2ccc(F)c(C(F)F)c2)c2c1[C@H](O)C(F)(F)CC2` [Example 5, (S)-1-(3-(difluoromethyl)-4-fluorophenyl)-5,5-difluoro-3-(methylsulfonyl)-4,5,6,7-tetrahydro-1H-indol-4-ol], under “Homo sapiens, 786-0”, the IC50 (in general, the concentration that inhibits the measured activity by half) worked out at 72 nM.

Under “Homo sapiens, 786-0”, `N#Cc1ccc(-n2cc(S(=O)(=O)C(F)(F)F)c3c2CCC[C@H]3O)cc1C(F)F` [Example 65, (R)-2-(difluoromethyl)-4-(4-hydroxyl-3-((trifluoromethyl)sulfonyl)-4,5,6,7-tetrahydro-1H-indol-1-yl)benzonitrile] gave an IC50 of 30 nM.

`N#Cc1ccc(-n2cc(C(F)(F)F)c3c2CCC(F)(F)[C@H]3O)cc1C(F)F` [Example 3, (S)-4-(5,5-difluoro-4-hydroxyl-3-(trifluoromethyl)-4,5,6,7-tetrahydro-1H-indol-1-yl)-2-(difluoromethyl)benzonitrile] gave an IC50 (Homo sapiens, 786-0) of 3 nM. This IC50 is about 10-fold lower than that of the compound before.

Compound `O=S(=O)(c1cn(-c2ccc(F)c(C(F)F)c2)c2c1[C@H](O)[C@@H](F)CC2)C(F)F` [Example 64, (4S,5S)-1-(3-(difluoromethyl)-4-fluorophenyl)-3-((difluoromethyl)sulfonyl)-5-fluoro-4,5,6,7-tetrahydro-1H-indol-4-ol] had an IC50 (Homo sapiens, 786-0) of 33 nM.

Under setting [1], `N#Cc1ccc(-n2cc(C(F)(F)C(F)(F)F)c3c2CCC(F)(F)C3O)cc1C(F)F` (stereo not drawn) [Example 41, 4-(5,5-difluoro-4-hydroxyl-3-(perfluoroethyl)-4,5,6,7-tetrahydro-1H-indol-1-yl)-2-(difluoromethyl)benzonitrile] returned an IC50 not above 500 nM.

Compound `CS(=O)(=O)c1cn(-c2ccc(Cl)c(C#N)c2)c2c1[C@H](O)C(F)(F)CC2` [Example 27, (S)-2-chloro-5-(5,5-difluoro-4-hydroxyl-3-(methylsulfonyl)-4,5,6,7-tetrahydro-1H-indol-1-yl)benzonitrile] showed an IC50 under setting [1] not above 500 nM.

For `N#Cc1cc(-n2cc(C(F)(F)F)c3c2CCC(F)(F)C3O)cc(F)c1F` (stereo not drawn) [Example 1, 5-(5,5-difluoro-4-hydroxyl-3-(trifluoromethyl)-4,5,6,7-tetrahydro-1H-indol-1-yl)-2,3-difluorobenzonitrile], the IC50 under setting [1] is not above 500 nM.

In turn, `N#CC(F)S(=O)(=O)c1cn(-c2ccc(F)c(C(F)F)c2)c2c1[C@H](O)C(F)(F)CC2` (stereo partly drawn) [Example 47, 2-(((S)-1-(3-(difluoromethyl)-4-fluorophenyl)-5,5-difluoro-4-hydroxyl-4,5,6,7-tetrahydro-1H-indol-3-yl)sulfonyl)-2-fluoroacetonitrile] displayed an IC50 (Homo sapiens, 786-0) of 8 nM.

In turn, `O[C@H]1c2c(-c3nccs3)cn(-c3ccc(F)c(C(F)F)c3)c2CCC1(F)F` [Example 51, (S)-1-(3-(difluoromethyl)-4-fluorophenyl)-5,5-difluoro-3-(thiazol-2-yl)-4,5,6,7-tetrahydro-1H-indol-4-ol] gave an IC50 (Homo sapiens, 786-0) of 1250 nM.

In turn, `O=S(=O)(c1cn(-c2ccc(F)c(C(F)F)c2)c2c1[C@@H](O)C(F)(F)CC2)C(F)F` [Example 26, (R)-1-(3-(difluoromethyl)-4-fluorophenyl)-3-((difluoromethyl)sulfonyl)-5,5-difluoro-4,5,6,7-tetrahydro-1H-indol-4-ol] yielded an IC50 (Homo sapiens, 786-0) of 628 nM.

For `N#Cc1ccc(-n2cc(S(=O)(=O)C(F)F)c3c2CCC(F)(F)[C@H]3O)cc1C#N` [Example 39, (S)-4-(3-((difluoromethyl)sulfonyl)-5,5-difluoro-4-hydroxyl-4,5,6,7-tetrahydro-1H-indol-1-yl)phthalonitrile], the IC50 (Homo sapiens, 786-0) is 140 nM.

In the case of `N#Cc1cc(-n2cc(C(F)(F)C(N)=O)c3c2CCC(F)(F)C3O)ccc1F` (stereo not drawn) [Example 15, 2-(1-(3-cyano-4-fluorophenyl)-5,5-difluoro-4-hydroxyl-4,5,6,7-tetrahydro-1H-indol-3-yl)-2,2-difluoroacetamide], the IC50 under setting [1] lay within 500 to 1500 nM.

For the compound `N#Cc1cc(-n2cc(S(=O)(=O)C(F)(F)F)c3c2CCC(F)(F)[C@H]3O)ccc1F` [Example 10, (S)-5-(5,5-difluoro-4-hydroxyl-3-((trifluoromethyl)sulfonyl)-4,5,6,7-tetrahydro-1H-indol-1-yl)-2-fluorobenzonitrile], under setting [1], the IC50 is not above 500 nM.

In the case of `O=S(=O)(c1cn(-c2ccc(F)c(C(F)F)c2)c2c1[C@H](O)[C@H](F)CC2)C(F)F` [Example 63, (4S,5R)-1-(3-(difluoromethyl)-4-fluorophenyl)-3-((difluoromethyl)sulfonyl)-5-fluoro-4,5,6,7-tetrahydro-1H-indol-4-ol], the IC50 (Homo sapiens, 786-0) came to 50 nM.

Under setting [1], `N#Cc1ccc(-n2cc(C(F)(F)C(F)(F)F)c3c2CCC(F)(F)[C@H]3O)cc1C#N` [Example 46, (S)-4-(5,5-difluoro-4-hydroxyl-3-(perfluoroethyl)-4,5,6,7-tetrahydro-1H-indol-1-yl)phthalonitrile] came in with an IC50 not above 500 nM.

As for `N#Cc1cc(-n2c(F)c(-c3cccs3)c3c2CCC(F)(F)C3O)ccc1F` (stereo not drawn) [Example 106, 2-fluoro-5-(2,5,5-trifluoro-4-hydroxyl-3-(thien-2-yl)-4,5,6,7-tetrahydro-1H-indol-1-yl)benzonitrile], where the note is “Homo sapiens, 786-0”, the IC50 worked out at 15 nM.

With `O=S(=O)(CF)c1cn(-c2ccc(F)c(Cl)c2)c2c1[C@H](O)C(F)(F)CC2` [Example 37, (S)-1-(3-chloro-4-fluorophenyl)-5,5-difluoro-3-((fluoromethyl)sulfonyl)-4,5,6,7-tetrahydro-1H-indol-4-ol], under setting [1], the IC50 is not above 500 nM.

`N#Cc1ccc(-n2cc(S(=O)(=O)C(F)(F)F)c3c2CCC(F)(F)[C@H]3O)cc1C#N` [Example 42, (S)-4-(5,5-difluoro-4-hydroxyl-3-((trifluoromethyl)sulfonyl)-4,5,6,7-tetrahydro-1H-indol-1-yl)phthalonitrile] came in with an IC50 (Homo sapiens, 786-0) of 74 nM.

As for `O=S(=O)(c1cn(-c2ccc(F)c(Cl)c2)c2c1C(O)C(F)(F)CC2)C(F)F` (stereo not drawn) [Example 25, 1-(3-chloro-4-fluorophenyl)-3-((difluoromethyl)sulfonyl)-5,5-difluoro-4,5,6,7-tetrahydro-1H-indol-4-ol], it took 63 nM to reach half-maximal inhibition (Homo sapiens, 786-0) (IC50).

Consider `N#Cc1ccc(-n2cc(S(=O)(=O)C(F)F)c3c2CCC(F)(F)[C@H]3O)cc1C(F)(F)F` [Example 34, (S)-4-(3-((difluoromethyl)sulfonyl)-5,5-difluoro-4-hydroxyl-4,5,6,7-tetrahydro-1H-indol-1-yl)-2-(trifluoromethyl)benzonitrile], for which the IC50 under setting [1] was not above 500 nM.

`CS(=O)(=O)c1cn(-c2ccc(C#N)c(C(F)F)c2)c2c1[C@H](O)C(F)(F)CC2` [Example 29, (S)-4-(5,5-difluoro-4-hydroxyl-3-(methylsulfonyl)-4,5,6,7-tetrahydro-1H-indol-1-yl)-2-(difluoromethyl)benzonitrile] registered a concentration for half-maximal inhibition (IC50) (Homo sapiens, 786-0) of 174 nM. This lies in the sub-micromolar range.

`N#Cc1ccc(-n2cc(S(=O)(=O)CF)c3c2CCC(F)(F)[C@H]3O)cc1C#N` [Example 45, (S)-4-(5,5-difluoro-3-((fluoromethyl)sulfonyl)-4-hydroxyl-4,5,6,7-tetrahydro-1H-indol-1-yl)phthalonitrile]: the IC50 under setting [1] is not above 500 nM.

Take `N#Cc1ccc(-n2cc(S(=O)(=O)C(F)F)c3c2CCC(F)(F)[C@H]3O)cc1C(F)F` [Example 43, (S)-2-(difluoromethyl)-4-(3-((difluoromethyl)sulfonyl)-5,5-difluoro-4-hydroxyl-4,5,6,7-tetrahydro-1H-indol-1-yl)benzonitrile]: under setting [1], the IC50 was not above 500 nM.

In turn, `N#CCS(=O)(=O)c1cn(-c2ccc(F)c(C(F)F)c2)c2c1[C@H](O)C(F)(F)CC2` [Example 19, (S)-2-((1-(3-(difluoromethyl)-4-fluorophenyl)-5,5-difluoro-4-hydroxyl-4,5,6,7-tetrahydro-1H-indol-3-yl)sulfonyl)acetonitrile] registered an IC50 under setting [1] of 500 to 1500 nM.

In the case of `O=S(=O)(CF)c1cn(-c2ccc(F)c(C(F)F)c2)c2c1[C@@H](O)C(F)(F)CC2` [Example 61, (R)-1-(3-(difluoromethyl)-4-fluorophenyl)-5,5-difluoro-3-((fluoromethyl)sulfonyl)-4,5,6,7-tetrahydro-1H-indol-4-ol], the IC50 under setting [1] is not above 500 nM.

As for `CS(=O)(=NC#N)c1cn(-c2ccc(F)c(C#N)c2)c2c1[C@H](O)C(F)(F)CC2` (stereo partly drawn) [Example 18, N—(((S)-1-(3-cyano-4-fluorophenyl)-5,5-difluoro-4-hydroxyl-4,5,6,7-tetrahydro-1H-indol-3-yl)(methyl)(oxo)-16-sulfino)cyanamide], for the setting “class symbols”, the IC50 was not above 500 nM.

In the case of `N#Cc1cc(-n2cc(S(=O)(=O)C(F)F)c3c2CCC(F)(F)[C@H]3O)ccc1Cl` [Example 28, (S)-2-chloro-5-(3-((difluoromethyl)sulfonyl)-5,5-difluoro-4-hydroxyl-4,5,6,7-tetrahydro-1H-indol-1-yl)benzonitrile], the IC50 (Homo sapiens, 786-0) is 118 nM.

In turn, `CS(=O)(=O)c1cn(-c2ccc(F)c(C(F)(F)F)c2)c2c1[C@H](O)C(F)(F)CC2` [Example 20, (S)-5,5-difluoro-1-(4-fluoro-3-(trifluoromethyl)phenyl)-3-(methylsulfonyl)-4,5,6,7-tetrahydro-1H-indol-4-ol] registered an IC50 (Homo sapiens, 786-0) of 39 nM.

Consider `O=S(=O)(CF)c1cn(-c2ccc(F)c(C(F)(F)F)c2)c2c1[C@H](O)C(F)(F)CC2` [Example 30, (S)-5,5-difluoro-1-(4-fluoro-3-(trifluoromethyl)phenyl)-3-((fluoromethyl)sulfonyl)-4,5,6,7-tetrahydro-1H-indol-4-ol], for which the midpoint of inhibition (Homo sapiens, 786-0), the IC50, lay at 45 nM. This IC50 and that of the compound before are within 1.5-fold of each other.

`CCS(=O)(=O)c1cn(-c2ccc(F)c(C(F)(F)F)c2)c2c1[C@H](O)C(F)(F)CC2` [Example 16, (S)-3-(ethylsulfonyl)-5,5-difluoro-1-(4-fluoro-3-(trifluoromethyl)phenyl)-4,5,6,7-tetrahydro-1H-indol-4-ol] registered an IC50 (Homo sapiens, 786-0) of 537 nM. This IC50 is about 12-fold higher than that of the compound before.
